In brackets after ≈: the same amount, converted by molar mass. Read-outs that look alike come from different tables or passages of the source.
What was measured:
Experiment in all cases: MIC, standard agar-dilution assay
Assay type in all cases: cell-based
[1] = system: Haemophilus influenzae C.L.; conditions: Haemophilus influenzae, read-out: minimal inhibitory concentration (MIC)
Escherichia coli EC14 = conditions: Escherichia coli
[2] = system: Streptococcus pneumoniae Park I; conditions: Streptococcus pneumoniae, read-out: minimal inhibitory concentration (MIC)
[3] = system: Streptococcus pyogenes C203; conditions: Streptococcus pyogenes, C203, read-out: minimal inhibitory concentration (MIC)
[4] = system: Haemophilus influenzae 76
[5] = system: Klebsiella pneumoniae X68; conditions: Klebsiella pneumoniae
[6] = system: Streptococcus sp. group D X66; conditions: Streptococcus, read-out: minimal inhibitory concentration (MIC)
[7] = system: Streptococcus sp. group D 2041; conditions: Streptococcus, read-out: minimal inhibitory concentration (MIC)
[8] = system: Staphylococcus aureus X1.1; conditions: Staphylococcus aureus, X1.1, read-out: minimal inhibitory concentration (MIC)
[9] = system: Staphylococcus epidermidis 222; conditions: Staphylococcus epidermidis, 222, read-out: minimal inhibitory concentration (MIC)
[10] = system: Staphylococcus aureus S13E; conditions: Staphylococcus aureus, S13E, read-out: minimal inhibitory concentration (MIC)
[11] = system: Staphylococcus aureus X400; conditions: Staphylococcus aureus
Source text: (§1) In addition to excellent in vitro activity against erythromycin-sensitive bacteria, several members of this new series have shown in vitro activity against erythromycin-resistant strains. These include strains which are inducibly-resistant to erythromycin (S. aureus V41 and X400 and S. epidermidis EPI1) and even strains which are constitutively-resistant (S. epidermidis 270).

[12] = system: Staphylococcus epidermidis 270
Source text: as §1

[13] = system: Staphylococcus aureus V41; conditions: Staphylococcus aureus
Source text: as §1

[14] = EC14, Table IV, agar dilution, read-out: minimal inhibitory concentration (MIC)
[15] = X68, Table IV, agar dilution, read-out: minimal inhibitory concentration (MIC)
[16] = X400, Table IV, methicillin-resistant strain, inducibly erythromycin-resistant, read-out: minimal inhibitory concentration (MIC)
[17] = Staphylococcus epidermidis, 270, Table IV, constitutively erythromycin-resistant, read-out: minimal inhibitory concentration (MIC)
[18] = V41, Table IV, penicillin-resistant strain, inducibly erythromycin-resistant, read-out: minimal inhibitory concentration (MIC)
[19] = Haemophilus influenzae, 76, Table IV, ampicillin-resistant strain, read-out: minimal inhibitory concentration (MIC)
[20] = X68, read-out: minimal inhibitory concentration (MIC)
[21] = EC14, read-out: minimal inhibitory concentration (MIC)

| Structure (SMILES) | MIC [1] [µg/mL] | MIC (Escherichia coli EC14; [14]) [µg/mL] | MIC [2] [µg/mL] | MIC [3] [µg/mL] | MIC [5, 15] [µg/mL] | MIC [6] [µg/mL] | MIC [7] [µg/mL] | MIC [8] [µg/mL] | MIC [9] [µg/mL] | MIC [10] [µg/mL] | MIC [11, 16] [µg/mL] | MIC [12, 17] [µg/mL] | MIC [13, 18] [µg/mL] | MIC [4, 19] [µg/mL] | MIC [5, 20] [µg/mL] | MIC (Escherichia coli EC14; [21]) [µg/mL] | other results |
| --- | --- | --- | --- | --- | --- | --- | --- | --- | --- | --- | --- | --- | --- | --- | --- | --- | --- |
| CCCCCCCCCCN[C@@H]1[C@H](C)[C@@H](O)[C@](C)(O)[C@@H](CC)OC(=O)[C@H](C)[C@@H](O[C@H]2C[C@@](C)(OC)[C@@H](O)[C@H](C)O2)[C@H](C)[C@@H](O[C@@H]2O[C@H](C)C[C@H](N(C)C)[C@H]2O)[C@](C)(O)C[C@H]1C [Compound 9, 9-Deoxo-9-(n-decylamino)erythromycin] | 2 (≈ 2.29 µM) | > 128 | 0.015 (≈ 0.0171 µM) | 0.015 (≈ 0.0171 µM) | > 128 | 0.25 (≈ 0.286 µM) | 2 (≈ 2.29 µM) | 1 (≈ 1.14 µM) | 1 (≈ 1.14 µM) |  |  |  |  |  |  |  | MIC ([4]; Haemophilus influenzae, 76, read-out: minimal inhibitory concentration (MIC)): 1 µg/mL (≈ 1.14 µM) |
| CC[C@H]1OC(=O)[C@H](C)[C@@H](O[C@H]2C[C@@](C)(OC)[C@@H](O)[C@H](C)O2)[C@H](C)[C@@H](O[C@@H]2O[C@H](C)C[C@H](N(C)C)[C@H]2O)[C@](C)(O)C[C@@H](C)[C@H](NCCC2=C(C)CCCC2(C)C)[C@H](C)[C@@H](O)[C@]1(C)O [Compound 30, 9-Deoxo-9-[[2-(2,6,6-trimethyl-1-cyclohexen-1-yl)ethyl]amino]erythromycin] |  | > 128 |  | 0.5 (≈ 0.565 µM) | > 128 | 0.125 (≈ 0.141 µM) | 2 (≈ 2.26 µM) | 1 (≈ 1.13 µM) | 1 (≈ 1.13 µM) | 2 (≈ 2.26 µM) | 32 (≈ 36.1 µM) | 64 (≈ 72.3 µM) | 16 (≈ 18.1 µM) | 4 (≈ 4.52 µM) |  |  | MIC ([1]; Table IV, ampicillin-sensitive strain): 4 µg/mL (≈ 4.52 µM) |
| CCCCCCCCCCCCN[C@@H]1[C@H](C)[C@@H](O)[C@](C)(O)[C@@H](CC)OC(=O)[C@H](C)[C@@H](O[C@H]2C[C@@](C)(OC)[C@@H](O)[C@H](C)O2)[C@H](C)[C@@H](O[C@@H]2O[C@H](C)C[C@H](N(C)C)[C@H]2O)[C@](C)(O)C[C@H]1C [Compound 10, 9-Deoxo-9-(n-dodecylamino)erythromycin] |  | > 128 | 0.06 (≈ 0.0664 µM) |  | > 128 | 1 (≈ 1.11 µM) |  |  |  |  |  |  |  |  |  |  |  |
| CC[C@H]1OC(=O)[C@H](C)[C@@H](O[C@H]2C[C@@](C)(OC)[C@@H](O)[C@H](C)O2)[C@H](C)[C@@H](O[C@@H]2O[C@H](C)C[C@H](N(C)C)[C@H]2O)[C@](C)(O)C[C@@H](C)[C@H](NCCCC#N)[C@H](C)[C@@H](O)[C@]1(C)O [Compound 29, 9-Deoxo-9-[(3-cyanopropyl)amino]erythromycin] | 2 (≈ 2.49 µM) | 64 (≈ 79.8 µM) |  | 1 (≈ 1.25 µM) |  | 0.125 (≈ 0.156 µM) |  | 1 (≈ 1.25 µM) | 1 (≈ 1.25 µM) | 128 (≈ 160 µM) |  |  |  | 4 (≈ 4.99 µM) | 128 (≈ 160 µM) |  | MIC ([11]; X400, read-out: minimal inhibitory concentration (MIC)): > 128 µg/mL; MIC ([12]; Staphylococcus epidermidis, 270, read-out: minimal inhibitory concentration (MIC)): > 128 µg/mL; MIC ([13]; V41, read-out: minimal inhibitory concentration (MIC)): > 128 µg/mL; MIC ([7]; Table IV, agar dilution): 4 µg/mL (≈ 4.99 µM) |
| CC[C@H]1OC(=O)[C@H](C)[C@@H](O[C@H]2C[C@@](C)(OC)[C@@H](O)[C@H](C)O2)[C@H](C)[C@@H](O[C@@H]2O[C@H](C)C[C@H](N(C)C)[C@H]2O)[C@](C)(O)C[C@@H](C)[C@H](NCCCc2ccccc2)[C@H](C)[C@@H](O)[C@]1(C)O [Compound 17, (9S)-9-Deoxo-9-[(3-phenylpropyl)amino]erythromycin] | 2 (≈ 2.34 µM) |  | 0.015 (≈ 0.0176 µM) | 0.015 (≈ 0.0176 µM) | > 128 | 0.06 (≈ 0.0703 µM) | 2 (≈ 2.34 µM) | 1 (≈ 1.17 µM) | 0.5 (≈ 0.586 µM) |  | > 128 | > 128 | > 128 |  |  | 128 (≈ 150 µM) |  |
| CCOC(=O)C1CC1CN[C@@H]1[C@H](C)[C@@H](O)[C@](C)(O)[C@@H](CC)OC(=O)[C@H](C)[C@@H](O[C@H]2C[C@@](C)(OC)[C@@H](O)[C@H](C)O2)[C@H](C)[C@@H](O[C@@H]2O[C@H](C)C[C@H](N(C)C)[C@H]2O)[C@](C)(O)C[C@H]1C (stereo partly shown) [Compound 27, 9-Deoxo-9-[[[2-(ethoxycarbonyl)cyclopropyl]methyl]amino]erythromycin] | 2 (≈ 2.32 µM) |  |  | 0.5 (≈ 0.581 µM) |  | 0.125 (≈ 0.145 µM) | 2 (≈ 2.32 µM) | 1 (≈ 1.16 µM) | 0.5 (≈ 0.581 µM) | 1 (≈ 1.16 µM) | > 128 | > 128 | > 128 | 2 (≈ 2.32 µM) | 128 (≈ 149 µM) | 128 (≈ 149 µM) |  |
| CCCCCN[C@@H]1[C@H](C)[C@@H](O)[C@](C)(O)[C@@H](CC)OC(=O)[C@H](C)[C@@H](O[C@H]2C[C@@](C)(OC)[C@@H](O)[C@H](C)O2)[C@H](C)[C@@H](O[C@@H]2O[C@H](C)C[C@H](N(C)C)[C@H]2O)[C@](C)(O)C[C@H]1C [Compound 5, 9-Deoxo-9-(n-pentylamino)erythromycin] |  |  | 0.015 (≈ 0.0186 µM) | 0.06 (≈ 0.0745 µM) |  | 0.125 (≈ 0.155 µM) |  |  |  |  | > 128 | > 128 | > 128 |  | 128 (≈ 159 µM) | 128 (≈ 159 µM) |  |

From US5110800A, “Derivatives of erythromycylamine” (Eli Lilly and Company, priority 1989, dated 1992)
